The record followed here is US6551815B1, “In situ denitrification” (University of New Mexico, priority 1997, dated 2003).

Values joined by “and” are separate entries in the source; they are usually repeats but may differ in a detail not shown here. Identical values can stand only once. “Also recorded” adds a separate entry of the source. Like-named read-outs stand apart in the source and are kept apart here.

In one series the test system is indigenous bacteria. The experiment in a line: Batch denitrification of Mountainview groundwater. In kind it is cell-based.
The test system of series [1] is indigenous denitrifying bacteria naturally present in the groundwater. The experiment in a line: Serum bottle denitrification of Tuba City groundwater amended with carbon and phosphorus sources. In kind it is cell-based. The conditions noted are these: for concentration (as high as) at which activity of denitrifiers was not inhibited: initial nitrate about 21 mM. How it is done:
In situ biological denitrification was studied as a groundwater remediation process with nitrogen as the final product at an UMTRA site in Tuba City, Ariz. Nitrate contaminated groundwater and soil from the contaminated field site were used, and in all experiments the initial nitrate concentration was about 1300 mg/L and the pH was 7.5-8. Denitrification was studied in a 2.5 L fermentor and in 120 mL serum bottles using a water to soil ratio of 100 mL/8 g and indigenous denitrifying bacteria naturally present in the groundwater. Oxygen was removed initially by purging with argon for 15 minutes. […] Nitrate, nitrite, carbon source, and pH changes were monitored during denitrification. Eh was indicated using a resazurin dye. […] For each carbon source, the stoichiometric equation is present, and a theoretical yield coefficient was determined from each stoichiometric equation.
The water samples were kept in 1000 mL plastic bottles and reserved in a refrigerator.
Chemicals used for phosphorus amendment included orthophosphate KH2PO4, trimetaphosphate Na3P3O9 (Sigma Co.) and polyphosphate (NaPO3)n (Aldrich Co.). All chemicals were A.C.S. reagent grade. Crushed sands were prepared by pulverizing the core samples (about 47 to 100 feet depth) from the Tuba City site using a pestle and mortar. This Navajo sandstone is a fine to fine grained unit with median grain size diameter (d50) about 0.11 mm. The sandstone was kept without contamination by organic chemicals.
(§1) Stock solution mixtures with neutral pH and total volume less than 15 mL for denitrification amendment, including carbon source and phosphorus sources, 0.05 mL of a 0.2% resazurin solution (redox potential indicator), and 8 g crushed sand for part experiments, were added into a 160 mL serum bottle, which was then autoclaved at 121° C. (250° F.) for 20 min. Groundwater sample was added under aseptic environment after the bottle cooled down, and the serum bottle was sealed with a butyl rubber stopper and crimped with an aluminum seal. Total volume of the liquid was about 100 to 120 mL. The solution was then purged with argon gas through a 22 gauge long needle for 15 min to ensure that an anaerobic environment was maintained, and another needle was used for gas exhaustion at the same time. The exhaustion needle was taken out before the spinal needle was done, and the serum bottle was pressurized under 7-10 psig. To keep the gas phase sterile, a gas filter with 0.2 μm pore size was used. Serum bottles were kept either at room temperature about 23±1° C. and shaken 2 to 3 times every day or kept at 16° C. in a Lindberg/Blue M constant temperature refrigerated shaker waterbath model RSWB3222A (A General Signal Company, NC). No denitrifying bacteria were inoculated to water samples, and pH was not controlled for all of the experiments. Denitrification process via the activity of the indigenous denitrifiers present in the groundwater was monitored. Disposable syringes were used for sampling.
The IC unit, Dionex DX 500 chromatography system (Dionex Co., CA), consists of a GP 40-1 gradient pump, an ED 40-1 electrochemical detector, and a LC 10-2 chromatography organizer with an lonpac AS 11 analytical column (4 mm) and an ASRS-1 (4 mm) anion self-regenerating suppresser as its main components. This lonpac AS 11 4-mm analytical column with functional group of alkanol quaternary ammonium is designed to resolve a number of inorganic anions and organic acid anions from a single sample injection in one gradient run using hydroxide eluent systems such as NaOH used in our experiment.

Series [2] is described as follows: Phosphate precipitation in amended groundwater (serum bottles). The conditions noted are these: for calcium phosphate precipitation as compared to orthophosphate: Tuba City groundwater. It is filed as physicochemical. On the procedure:
as §1, with “The solution was then purged with argon gas through a 22 gauge long needle for 15 min to ensure that an anaerobic environment was maintained, and another needle was used for gas exhaustion at the same time.” left out
Triple serum bottle experiments were run in parallel at room temperature about 23±1° C.

Where [3] appears, read: complete = <1 mg/L for N, core sand, KH2PO4, 23±1° C.
[4] abbreviates: groundwater with core sand, KH2PO4 100 mg/L, 23±1° C.
Where [5] appears, read: serum bottles purged with argon.

Turning to `CC(=O)[O-].[K+]` [Acetate, potassium acetate], the “denitrification via indigenous bacteria” value in the series with indigenous bacteria (potassium acetate without TMP) is recorded as “did not work”. Besides, in series [1], the “C/N molar ratio for nearly complete denitrification (Table 5)” value (“C/N molar ratio … (Table 5)” below) is on record as 1.425; the “C/N molar ratio, minimum for nearly complete denitrification” value (“C/N molar ratio, minimum” below) is 1.425; the Denitrification efficiency was 0% and 7-10%; the “minimum C/N molar ratio for complete denitrification” value (shortened to “minimum C/N molar ratio”) turned out to be 1.425. The “nitrate reduced after two months” value in series [1] came to 5%.

Regarding `CCO` [Ethanol, ethanol], the “minimum C/N molar ratio” value in series [1] (setting [3]) worked out at 1.083. Moreover, in series [1] (setting [4]), the “C/N molar ratio … (Table 5)” value is reported as 1.083 and the “C/N molar ratio, minimum” value is recorded as 1.083. Besides, in series [1], the “concentration (as high as) at which activity of denitrifiers was not inhibited” value worked out at 25 mM. Further, the denitrification time entry in series [1] (orthophosphate, whole group of experiments finished, FIG. 5(f)) is “about 3.5 weeks”. Moreover, the “time at which nitrate reduction completed or stopped” value in series [1] (polyphosphate 100 mg NaPO3/L, core sand, argon purge, 23±1° C., ethanol insufficient for complete denitrification) is on record as “about 30 days”.

For `CC(O)C(=O)[O-].[Na+]` (stereo not shown) [Lactate, sodium lactate], in series [1] (setting [3]), the “minimum C/N molar ratio” value was found to be 2. Further, in series [1] (setting [4]), the “C/N molar ratio … (Table 5)” value is listed as 2.000 and the “C/N molar ratio, minimum” value turned out to be 2.000.

As to `CO` [Methanol, methanol], in series [1] (setting [3]), the “minimum C/N molar ratio” value is reported as 1. Besides, in series [1] (setting [4]), the “C/N molar ratio … (Table 5)” value is 1.000 and the “C/N molar ratio, minimum” value was determined as 1.000. Besides, the “concentration (as high as) at which activity of denitrifiers was not inhibited” value in series [1] is 45 mM.

For the molecule `O=P1([O-])OP(=O)([O-])OP(=O)([O-])O1.[Na+].[Na+].[Na+]` [TMP, trimetaphosphate], the “denitrification via indigenous bacteria” value in the series with indigenous bacteria (groundwater amended with potassium acetate and 20 mg TMP/L) is reported as “worked successfully”. In addition, the “calcium phosphate precipitation as compared to orthophosphate” value in series [2] is “reduced calcium phosphate precipitation”. The “phosphate precipitate observed in groundwater” value (“phosphate precipitate observed” for short) in series [2] (setting [5]) was “No phosphate precipitate was found in three weeks; also recorded: No phosphate precipitate was found while purging with argon, even in two weeks”. The “time to complete denitrification” value in series [1] (TMP 100 mg NaPO3/L and acetate, with sand, 16° C.) came out at 28 days. Also, the “denitrification time longer than with orthophosphate” value in series [1] (TMP and acetate, with sand, 16° C.) turned out to be 11 days.

With `O=P(O)(O)O` [orthophosphate, reference compound], in series [2] (setting [5]), the “phosphate precipitate observed” value is given as “Precipitate of orthophosphate (0.7-0.8 mM) formed”.

With polyphosphate, in series [2], the “calcium phosphate precipitation as compared to orthophosphate” value is “reduced calcium phosphate precipitation”. The “phosphate precipitate observed” value is “Phosphate precipitate was not found; also recorded: White precipitates were not found until a week later” in series [2] (acetate and polyphosphate, no core sand, without purging with argon); “precipitate was found right after purging with argon; also recorded: white precipitates appeared while purging with argon” in series [2] (setting [5]).
